From article PMC5384453, “A multi-functional PEGylated gold(III) compound: potent anti-cancer properties and self-assembly into nanostructures for drug co-delivery” (Chemical Science, 2016)

How the values were obtained:
NCM460 cells = assay: Co-culture model of HCT116 and NCM460, Caspase-3/7 Green flow cytometry; format: cell-based, human; conditions: 24 h; for population percentage of apoptotic cells (Caspase-3/7 Green, corrected): CMF2HC-stained NCM460 in co-culture with HCT116, 2 μM
Method: (§1) This co-culture model treated with 1 for 24 h had 25.04 and 5.01% (Q2 and Q3 regions of Fig. S21a ^†; corrected) of HCT116 and NCM460 cells, respectively, undergoing apoptosis as determined by Caspase-3/7 Green Reagent staining and flow cytometric analysis (Fig. S21 ^†). This confirms the preferential induction of apoptosis by 1 of HCT116 cells over NCM460 cells in the co-culture model, regardless of the effect, if any, of the blue emissive CMF2HC dye.
(§2) atmosphere of 5% CO2. After reaching 80% confluency, the culture medium was
(§3) of 5% CO2 for 45 min. The solution was then removed. The stained NCM460 cells
(§4) the procedure described above.
(§5) right fore of BALB/c nude mice. When the tumor volume reached 70 mm3 after […]

HCT116 cells [1] = assay: as above; format: cell-based, human; conditions: 24 h; for population percentage of apoptotic cells (Caspase-3/7 Green, corrected): HCT116 in co-culture with CMF2HC-stained NCM460, 2 μM
Method: as §1, §2, §3, §4, §5

HCT116 cells [2] = assay: Time-dependent induction of apoptosis, Caspase-3/7 Green ReadyProbes fluorescence microscopy; format: cell-based, human; conditions: HCT116, 2 μM, Caspase-3/7 Green Reagent
Method: B from 20.1 to 25 min and returned to initial conditions and equilibrated for 3 minutes.
The flow rate was 0.4 mL/min and the injection volume was 2 µL. The UPLC-QTOF-MS chromatograms of 1, 3, 4 and solvent control in acetonitrile were also recorded for the interpretation of UPLC-QTOF-MS chromatograms of the cell lysate.
Cellular uptake experiments. HCT116, A2780 and A2780adr (2×10 5 cells), and MIHA and NCM460 (3.5×10 5 cells) cells were grown on 6-well plates at 37 °C under an atmosphere of 5% CO2 for 48 h. The culture medium was then removed, washed with PBS solution, and incubated with culture medium containing nanostructures of 1 […]
Au1a (2 µM; with 1 vol% DMSO). At a predetermined time, the culture medium was removed and washed with PBS solution for three times. The cells were then harvested and dispersed in ice-cold water. An aliquot of the cell suspension was subjected to Bio-rad protein assay with a microtitre plate reader at the absorbance at 595 nm, using bovine serum albumin as the protein standard. […] The solution mixture was heated at 65 °C with shaking overnight, and the gold content was determined by ICP-MS. […]
then removed and washed with PBS solution. The cells were then incubated with culture medium containing nanostructures of 1 (2 µM) and CellEvent Caspase-3/7 Green ReadyProbes Reagent (30 µL), or Au1a (2 µM; with 1 vol% DMSO) and CellEvent Caspase-3/7 Green ReadyProbes Reagent (30 µL) at 37 °C under an atmosphere of 5% CO2. Fluorescence images at different time intervals were recorded by the fluorescence microscope without washing the cells. […]
once every 2–3 days. The tumor volume was calculated by the equation: Volume (mm3) = l×w2/2, where l and w were the length and width of the tumor. At the end of the treatment, the nude mice were sacrificed and the tumor weight was measured. […]
At a predetermined time, the culture medium was removed and washed with PBS solution for three times. […] An aliquot of the cell suspension was subjected to Bio-rad protein assay with a microtitre plate reader at the absorbance at 595 nm, using bovine serum albumin as the protein standard. […]

[3] = Release of hydrolyzed gold(III) porphyrin moiety in aqueous buffer solutions (dialysis, ICP-MS); format: physicochemical; conditions: for hydrolyzed product found: sodium acetate buffer pH 4, 37 °C
Method: The rate of the release of the gold(III) porphyrin moiety from the conjugates in aqueous buffer solutions at different pH values was determined according to the reported methodology.[24],[26],[27] Nanostructures of 1 and 2 were dissolved in PBS or sodium acetate buffer (pH 4.0) and then dialyzed against a large volume of PBS or sodium acetate buffer solution in the dark at 37 °C using a 1000 Da cut-off dialysis membrane (details are included in the ESI ^†). The quantity of the hydrolyzed gold(III) porphyrin moiety at different time points was determined by inductively coupled plasma mass spectrometry (ICP-MS; Fig. 2a). In PBS, 31% and 60% of 1 were hydrolyzed at 6 and 24 h, respectively, while only 2% and 3% of hydrolyzed product of 2 were found at 5 and 24 h, and more than 89% of 2 remained unhydrolyzed at 96 h. […] Faster release was also found upon incubation of 2 in pH 4 buffer solution compared to that in PBS, but the amount was still much smaller than that found in the study of 1. As the only difference between 1 and 2 is the chemical structure of the linkage for PEG conjugation, the faster release of the gold(III) porphyrin moiety from 1 in PBS than that from 2 should be attributed to the higher tendency of the ester bond in 1 to undergo hydrolytic cleavage than the amide bond in 2.[52] […]
Study on the release of hydrolyzed product from 1 and 2 in aqueous buffer solutions by ICP-MS. The nanostructures of gold(III) complex was dissolved in PBS solution (pH 7.4; 1 mg/mL) or sodium acetate buffer solution (pH 4.0; 1 mg/mL) and was dialyzed against 1 L of the buffer solution at 37 °C using semipermeable minidialysis tubes (molecular weight cut-off = 1,000 Da; GE Healthcare). At a predetermined time, an aliquot of solution was removed and dissolved in HNO3/HCl solution mixture (9:1, v/v; volume of aliquot: volume of acid mixture = 1:3). The solution mixture was heated at 65 °C with shaking overnight, and the gold content was determined by ICP-MS from three independent aliquots. […]

Row | Molecule | population percentage of apoptotic cells (Caspase-3/7 Green, corrected) (NCM460 cells) | population percentage of apoptotic cells (Caspase-3/7 Green, corrected) (HCT116 cells [1]) | incubation time at which induction of apoptosis was apparent (HCT116 cells [2]) | hydrolyzed (release of gold(III) porphyrin moiety) ([3]; PBS, 37 °C, 5 h) | hydrolyzed (release of gold(III) porphyrin moiety) ([3]; PBS, 37 °C, 24 h) | remained unhydrolyzed ([3]; PBS, 37 °C, 96 h) | hydrolyzed (release of gold(III) porphyrin moiety) ([3]; PBS, 37 °C, 6 h) | hydrolyzed product found ([3]; 6 h) | hydrolyzed product found ([3]; 24 h) | cells undergoing apoptosis (Caspase-3/7 Green, corrected) (NCM460 cells; co-culture with HCT116 pre-treated with CMF2HC dye, NCM460 cells) | cells undergoing apoptosis (Caspase-3/7 Green, corrected) (HCT116 cells [1]; co-culture with HCT116 pre-treated with CMF2HC dye, HCT116 cells)
1 | C1=Cc2nc1c(-c1ccccc1)c1ccc([n-]1)c(-c1ccccc1)c1nc(c(-c3ccccc3)c3ccc([n-]3)c2-c2ccccc2)C=C1.[Au+3].[Cl-] [Au1a, [Au(TPP)]Cl, reference compound] | 29.3% | 54.6% | 12 h | – | – | – | – | – | – | – | –
2 | [Au(TPP–CONH–PEG5000–OCH3)]Cl [Compound 2] | – | – | – | 2% | 3% | more than 89% | – | – | – | – | –
3 | [Au(TPP–COO–PEG5000–OCH3)]Cl [Compound 1] | 4.1% | 25.3% | 15 h | – | 60% | – | 31% | 60% | 96% | 5.01% | 25.04%
